Series [1] relates to A2A receptor-chaperone complexes, HEK293 cells stably expressing FS2-N-A2AR. Briefly: Co-affinity precipitation of receptor-chaperone complexes after inhibitor treatment. It is filed as cell-based, human. The note with it: 17-DMAG 2 μM; for amount of HSP90 co-affinity-purified with the A2A receptor / association of HSP70 with the A2A receptor / higher glycosylated, mature form of the co-purified A2A receptor (ratio mature/core): 24 h, kifunensine 2 μM, bortezomib 10 nM. Here is the method: (§1) Cells (1–5 × 10^7 cells) were harvested, and membranes were prepared as described previously ([14]). Membranes were solubilized as described above, followed by incubation with streptavidin-conjugated beads (G2S-N-A2A) or Strep-Tactin-Sepharose beads (FSt2-N-A2A) for 2 h at 4 °C. […] Thereafter, preequilibrated protein G-Sepharose beads were added and incubated for an additional 3 h at 4 °C. The beads were washed twice with 0.5 ml of solubilization buffer. […] A2A receptor and HSP90 were detected by immunoblotting using either anti-A2AR or anti-FLAG and anti-HSP90α (Abcam, Cambridge, UK) antibodies, respectively. As a control, membranes were harvested from untransfected HEK293 cells and processed in parallel. Immunoblots were quantified as described above. Where required, nitrocellulose membranes of primary and secondary antibody labeling were stripped by incubation with KSCN buffer (3 M KSCN, 150 mM KCl, 10 mM NaH2PO4, 100 mg/liter polyvinylpyrrolidone K30, 1-ethenylpyrrolidin-2-one) for 20 min at 23 °C to afford detection of additional proteins with the pertinent antibodies (i.e. anti-HSP90β, anti-HSC70, anti-HOP, anti-P23, and anti-CHIP, all from Abcam).
FIGURE 7. […] B, immunoblots done as in A (top) were analyzed with ImageJ. […] C, the A2A receptor was immunoprecipitated from cells that had been incubated in the presence and absence of 17-DMAG (2 μM) as in A. The levels of HSC70 (C, top), HOP (C, second from top), P23 (C, third from top), and CHIP (C, bottom) were determined by immunoblotting and quantified with ImageJ.

Series [2] concerns endogenously expressed A2A receptor in PC12 cells. The series is described as follows: [3H]ZM241385 binding to membranes of inhibitor-pretreated PC12 cells. It is filed as cell-based. The note with it: for levels of functional (binding-competent) receptors: 24 h pretreatment, 2 μM, 10 nM [3H]ZM241385, PC12 membranes; for increase in steady state levels of active A2A receptors: PC12 cells, kifunensine 2 μM, bortezomib 10 nM. Here is the method: (§2) After 60 min at 23 °C, the reaction was terminated by rapid filtration over glass fiber filters (Whatman-GE Healthcare). […] Total receptor numbers were also determined by measuring the radioactivity released after dissolving the samples in 1 M NaOH ([22]). […] The number of viable cells was determined manually using a microscope counting chamber.
(§3) FIGURE 9. Effect of HSP90 and/or proteasome inhibitors on the levels of endogenously expressed A2A receptor in PC12 cells. […] B, prior to membrane preparations of PC12 cells expressing the A2A receptor, cells were incubated in the absence and presence of 17-DMAG (2 μM), kifunensine (2 μM), and bortezomib (10 nM). […] After two washes, surface-bound radioligand was released by an acid strip and recovered in the supernatant. Assays were performed in quadruplicates. […] After membrane extraction and immunoprecipitation, aliquots (corresponding to 3 × 10^5 cells) of the immunoprecipitate were blotted for the A2A receptor (top), HSP90α, HSP70–1A, HOP, P23, and CHIP, as indicated. M, mature; C, core glycosylated.

On the set-up of series [3]: method as in PMID 20177028. The note with it: administered to people; cited from earlier work.
The test system of series [4] is A2A receptor glycoforms, HEK293 cells stably expressing G2S-N-A2AR. Briefly: Immunoblot of A2A receptor glycoforms after HSP90 inhibitor treatment. Format: cell-based, human. The note with it: saturating concentrations, 24 h. The method, then:
as §1
FIGURE 5. […] Statistical significance was calculated by analysis of variance followed by Dunnett's multiple-comparison post hoc test (*, p < 0.05; ***, p < 0.001). […]
(A western blot detects proteins with antibodies after separation by electrophoresis.)

In series [5] the test system is cell surface levels of the A2A receptor, HEK293 cells stably expressing FS2-N-A2AR. The series is described as follows: Cell surface levels of the A2A receptor after 24 h HSP90 inhibitor treatment (acid-strip-sensitive [3H]ZM241385 binding). Format: cell-based, human. The note with it: for EC50 relative to affinity for binding to HSP90: EC50 higher than HSP90 affinity of refs 27, 28. The method, then:
as §2
FIGURE 5. […] Error bars, S.D. Data are from four independent experiments done in triplicate. Statistical significance was calculated by analysis of variance followed by Dunnett's multiple-comparison post hoc test (*, p < 0.05; ***, p < 0.001). B, HEK293 cells stably expressing the tagged version G2S-N-A2AR were incubated with increasing concentrations of radicicol or 17-DMAG.

Series [6] concerns A2A receptor-chaperone complexes in PC12 cells. The series is described as follows: Immunoprecipitation of endogenous A2A receptor from inhibitor-pretreated PC12 cells and immunoblotting. It is filed as cell-based. The note with it: for fully glycosylated, slowly migrating band of the A2A receptor: kifunensine 2 μM, bortezomib 10 nM. The method, then: as §1, §3

These results are taken from article PMC3789979, “Recruitment of a Cytoplasmic Chaperone Relay by the A2A Adenosine Receptor” (The Journal of Biological Chemistry, 2013).

pEC50: −log10 of the molar value. Like-named read-outs stand apart in the source and are kept apart here.

As a reminder, the half-life is how long it takes for the measured level to halve. As usually defined, the pEC50 is −log10 of the EC50, conventionally taken in molar units. As to `CO[C@H]1/C=C\C=C(/C)C(=O)NC2=CC(=O)C(NCCN(C)C)=C(C[C@@H](C)C[C@H](OC)[C@H](O)[C@@H](C)/C=C(\C)[C@@H]1OC(N)=O)C2=O` [17-DMAG, 17-dimethylaminoethylamino-17-demethoxygeldanamycin], in series [1], the “associated CHIP” value is “decline”; the “associated P23” value is listed as “decrease in associated P23 (HSP90 co-chaperone), but this did not reach statistical significance”; the “co-precipitated HOP” value was “substantial increase”; the “co-precipitated HSC70” value was “substantial increase”. Also, in series [1], the “amount of HSP90 co-affinity-purified with the A2A receptor” value (“amount of HSP90 co-affinity-purified” below) is on record as “increased”; the “association of HSP70 with the A2A receptor” value (“association of HSP70” below) is “augmented”; the “higher glycosylated, mature form of the co-purified A2A receptor (ratio mature/core)” value (“higher glycosylated … (ratio mature/core)” below) is “significant increase”. In addition, in series [2], the “levels of functional (binding-competent) receptors” value is recorded as “increased”. The half-life in series [3] is recorded as 24 h. Besides, the “core glycosylated band of the A2A receptor (immunoblot)” value in series [4] is reported as “increased accumulation”. The negative-log EC50 (pEC50) in series [5] (24 h incubation, acid-strip-sensitive [3H]ZM241385 binding, read-out: EC50 for increase in cell surface levels of the A2A receptor) was ~6.00. Further, the “EC50 relative to affinity for binding to HSP90” value in series [5] was “about 3 fold”. Also, in series [6] (17-DMAG 2 μM, 24 h), the “HSP90α, HSP70-1A and HSC70 recovered in the immunoprecipitate” value is given as “abundant amounts”. Further, the “fully glycosylated, slowly migrating band of the A2A receptor” value (shortened to “fully glycosylated”) in series [6] (24 h, 17-DMAG 2 μM) is “increased the abundance”. In series [6] (pretreatment with DMAG), the “HOP recovered with the A2A receptor” value is recorded as “more”; the “P23 and CHIP recovered with the A2A receptor” value is “less”.

For the compound `CC(C)C[C@H](NC(=O)[C@H](Cc1ccccc1)NC(=O)c1cnccn1)B(O)O` [bortezomib], in series [1], the “amount of HSP90 co-affinity-purified” value is given as “did not cause the accumulation”; the “association of HSP70” value is reported as “did not cause the accumulation”; the “higher glycosylated … (ratio mature/core)” value was “significant increase”. The “increase in steady state levels of active A2A receptors” value in series [2] is “about 1.5 fold”. Besides, the “fully glycosylated” value in series [6] (24 h, 17-DMAG 2 μM) is recorded as “increased the abundance”.

`O=C1N[C@@H]2[C@@H](O)[C@@H](O)[C@H](O)[C@@H](CO)N2C1=O` [kifunensine]: in series [1], the “amount of HSP90 co-affinity-purified” value is given as “accumulation”; the “association of HSP70” value is “accumulation”; the “higher glycosylated … (ratio mature/core)” value was “no significant increase”. In series [2], the “levels of functional (binding-competent) receptors” value is on record as “increased” and the “increase in steady state levels of active A2A receptors” value was “about 1.5 fold”. Also, the “fully glycosylated” value in series [6] (24 h, 17-DMAG 2 μM) was “increased the abundance”.

For `C[C@@H]1C[C@H]2O[C@@H]2/C=C\C=C\C(=O)Cc2c(Cl)c(O)cc(O)c2C(=O)O1` [radicicol], in series [4], the “core glycosylated band of the A2A receptor (immunoblot)” value is listed as “increased accumulation”. Further, the “EC50 relative to affinity for binding to HSP90” value in series [5] is given as “about 3 fold”. Besides, the negative-log EC50 (pEC50) in series [5] (Homo sapiens, HEK293, read-out: EC50 for increase in cell surface levels of the A2A receptor) is ~6.40.
